Data from PMC11173529, “Structure–Activity Relationship Studies in a Series of Xanthine Inhibitors of SLACK Potassium Channels” (Molecules, 2024).

Biological target: T1, human G288S SLACK (Homo sapiens, UniProt Q5JUK3, G269S)
T1 construct: host or cells: CHO-K1
T1 sequence (Q5JUK3 1-1235 isoform Q5JUK3-3 G288S): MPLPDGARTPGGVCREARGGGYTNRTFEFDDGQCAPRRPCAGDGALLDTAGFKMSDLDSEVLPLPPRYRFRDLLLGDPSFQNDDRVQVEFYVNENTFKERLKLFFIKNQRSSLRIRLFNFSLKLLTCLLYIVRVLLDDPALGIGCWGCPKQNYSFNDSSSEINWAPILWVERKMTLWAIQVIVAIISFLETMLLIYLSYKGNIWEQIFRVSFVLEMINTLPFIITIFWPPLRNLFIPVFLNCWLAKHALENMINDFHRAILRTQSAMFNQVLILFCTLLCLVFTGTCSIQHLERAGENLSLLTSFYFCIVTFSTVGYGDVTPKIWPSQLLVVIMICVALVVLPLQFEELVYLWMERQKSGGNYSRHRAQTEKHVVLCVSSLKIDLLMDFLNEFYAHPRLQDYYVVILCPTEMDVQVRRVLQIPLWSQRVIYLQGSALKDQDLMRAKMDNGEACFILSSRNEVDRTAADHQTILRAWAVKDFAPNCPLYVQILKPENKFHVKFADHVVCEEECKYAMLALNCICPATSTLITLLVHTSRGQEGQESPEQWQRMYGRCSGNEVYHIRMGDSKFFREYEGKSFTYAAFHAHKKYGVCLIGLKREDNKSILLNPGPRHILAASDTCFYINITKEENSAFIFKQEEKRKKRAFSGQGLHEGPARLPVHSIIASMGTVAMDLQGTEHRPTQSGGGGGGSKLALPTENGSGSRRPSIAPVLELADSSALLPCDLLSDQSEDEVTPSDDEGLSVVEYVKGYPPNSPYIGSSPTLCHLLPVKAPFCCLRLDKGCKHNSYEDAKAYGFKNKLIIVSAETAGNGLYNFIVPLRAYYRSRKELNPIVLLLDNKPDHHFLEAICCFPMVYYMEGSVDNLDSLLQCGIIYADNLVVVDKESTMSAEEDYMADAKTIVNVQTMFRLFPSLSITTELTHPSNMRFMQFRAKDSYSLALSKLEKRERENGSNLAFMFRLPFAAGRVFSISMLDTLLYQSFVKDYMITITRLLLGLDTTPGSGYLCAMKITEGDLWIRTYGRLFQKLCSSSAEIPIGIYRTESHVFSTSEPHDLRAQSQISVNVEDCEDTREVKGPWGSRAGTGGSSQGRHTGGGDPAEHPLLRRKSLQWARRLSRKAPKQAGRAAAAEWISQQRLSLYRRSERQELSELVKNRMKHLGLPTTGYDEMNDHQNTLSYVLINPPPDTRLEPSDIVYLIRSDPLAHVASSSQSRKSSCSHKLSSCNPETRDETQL
Experiment: Whole-cell APC in CHO cells stably expressing human G288S SLACK
Format: cell-based
Settings: for IC50: APC, CHO cells; for Imax: maximum inhibition at 30 µM standardized to VU0606170 (100%)
Text: Development of a useful SLACK inhibitor in vivo tool will require potent activity at the corresponding mouse ortholog as studies in appropriate mouse models will be critical. Thus, we evaluated analogs 32 and 48 in our APC assay using CHO cells stably expressing mouse WT SLACK (Table 6). […] We were also eager to evaluate the same compounds with regard to their ability to inhibit clinically relevant GOF SLACK mutants. Both the C-terminus A934T mutant and transmembrane G288S mutant have been associated with clinical cases of EIMFS [3, 7].
Stably transfected monoclonal HEK293 cell lines expressing Slick, Maxi-K α1/β3, Maxi-K α1/β4, CaV3.2, GIRK 1/2, KV2.1, KV7.2, NaV1.7, and TASK-1 were generated as previously described. Stably transfected monoclonal HEK293 cell lines expressing hERG were generated as previously described. CHO-K1 cells expressing human Slack and disease-associated human Slack mutations, G288S and A934T, were generated by transfecting a PiggyBac TRE mammalian expression vector (VectorBuilder, Chicago, IL, USA) containing KCNT1. FuGENE 6 (Promega, Madison, WI, USA) transfection reagent and protocol, together with Opti-MEM (Thermo Fisher Scientific, Walkham, MA, USA), were utilized.
Automated patch-clamp recording was performed with a SyncroPatch 768 PE system (Nanion, Munich, Germany) as previously described. Whole-cell recordings were performed at room temperature. Cells were harvested by first washing with PBS without Mg^2+ or Ca^2+ (Gibco, Billings, MT, USA) to remove cell culture media, followed by dissociation with TryPLE (Gibco, Billings, MT, USA). Cells were then resuspended and diluted to 100,000 cells/mL in external solution. External solution contained 105 mM NaCl, 4 mM KCl, 1 mM MgCl2, 5 mM CaCl2, 10 mM HEPES, and 40 mM N-Methyl-D-glucamine chloride, titrated to pH of 7.4 and osmolarity of 300 mOsm/kg; internal solution contained 70 mM NaCl, 70 mM KF, 10 mM KCl, 5 mM EGTA, and 5 mM HEPES, titrated to a pH of 7.2 and osmolarity of 295 mOsm/kg.
The APC protocol was set as follows: Cells were held at a […] of −80 mV for 100 ms, then a ramp protocol was performed from −100 mV to 80 mV at 0.4 mV/ms, followed by holding the cell at −80 mV for another 100 ms, then steps were performed at −20 mV, 0 mV, +20 mV, +40 mV, and +60 mV for 100 ms of each step. Whole-cell currents were measured at 0 mV and normalized to current after external buffer addition. […] To obtain the concentration-response relationship graphs and IC50 values, we take the median value of the last 7 current amplitude values obtained for each set of data points collected for a given concentration at a particular step.

Row | IC50 [nM] | SMILES | Imax [%]
1 | 880 | CCCCN(Cc1cccc(F)c1)c1nc2c(c(=O)n(Cc3cccc(OC)c3)c(=O)n2C)n1C [Analog 78] | –
2 | 1000 | COc1cccc(Cn2c(=O)c3c(nc(N(Cc4cccc(F)c4)CC4CC4)n3C)n(C)c2=O)c1 [Analog 79] | –
3 | 710 | CCCCN(Cc1ccc(F)cc1)c1nc2c(c(=O)n(Cc3cccc(OC)c3)c(=O)n2C)n1C [Analog 80] | –
4 | 790 | COc1cccc(Cn2c(=O)c3c(nc(N(Cc4ccc(F)cc4)CC4CC4)n3C)n(C)c2=O)c1 [Analog 81] | –

Row | SMILES | IC50 [nM] | Imax [%]
5 | COc1cccc(Cn2c(=O)c3c(nc(N(C)Cc4ccccc4)n3C)n(C)c2=O)c1 [Analog 32] | 650 | 100
6 | CN(Cc1cccc(F)c1)c1nc2c(c(=O)n(Cc3ccccc3)c(=O)n2C)n1C [Analog 48] | 750 | 100
